Source: the NIST ThermoML archive (doi:10.1016/j.fluid.2017.11.013)
Several values for one entry are separate records, joined by “and”; a condition that tells them apart may be missing. Equal values may be shown once. ± gives the expanded uncertainty stated by the source.

Settings: Coaxial cylinder method

C=C [ethene]
Settings	thermal conductivity
301.6 K, 7230 kPa, Fluid (supercritical or subcritical phases)	0.06174 ± 0.0024 W/m/K
301.6 K, 7400 kPa, Fluid (supercritical or subcritical phases)	0.06342 ± 0.0025 W/m/K
301.6 K, 7430 kPa, Fluid (supercritical or subcritical phases)	0.06371 ± 0.0025 W/m/K
301.6 K, 7440 kPa, Fluid (supercritical or subcritical phases)	0.06376 ± 0.0025 W/m/K
301.6 K, 7460 kPa, Fluid (supercritical or subcritical phases)	0.06392 ± 0.0025 W/m/K
301.6 K, 7480 kPa, Fluid (supercritical or subcritical phases)	0.06395 ± 0.0025 W/m/K
301.6 K, 7570 kPa, Fluid (supercritical or subcritical phases)	0.06425 ± 0.0025 W/m/K
301.6 K, 7680 kPa, Fluid (supercritical or subcritical phases)	0.06462 ± 0.0025 W/m/K
301.6 K, 7720 kPa, Fluid (supercritical or subcritical phases)	0.06482 ± 0.0025 W/m/K
301.6 K, 7760 kPa, Fluid (supercritical or subcritical phases)	0.06461 ± 0.0025 W/m/K
301.6 K, 7800 kPa, Fluid (supercritical or subcritical phases)	0.06479 ± 0.0025 W/m/K
301.6 K, 7820 kPa, Fluid (supercritical or subcritical phases)	0.06483 ± 0.0025 W/m/K
301.6 K, 7980 kPa, Fluid (supercritical or subcritical phases)	0.06482 ± 0.0025 W/m/K
301.6 K, 8360 kPa, Fluid (supercritical or subcritical phases)	0.0649 ± 0.0025 W/m/K
301.6 K, 9100 kPa, Fluid (supercritical or subcritical phases)	0.0668 ± 0.0026 W/m/K
301.6 K, 10390 kPa, Fluid (supercritical or subcritical phases)	0.0716 ± 0.0027 W/m/K
301.6 K, 12800 kPa, Fluid (supercritical or subcritical phases)	0.07701 ± 0.0029 W/m/K
301.6 K, 14950 kPa, Fluid (supercritical or subcritical phases)	0.08151 ± 0.0031 W/m/K
301.6 K, 18120 kPa, Fluid (supercritical or subcritical phases)	0.08743 ± 0.0033 W/m/K
301.6 K, 20700 kPa, Fluid (supercritical or subcritical phases)	0.09068 ± 0.0034 W/m/K
301.6 K, 20800 kPa, Fluid (supercritical or subcritical phases)	0.09075 ± 0.0034 W/m/K
301.6 K, 25600 kPa, Fluid (supercritical or subcritical phases)	0.09706 ± 0.0036 W/m/K
301.6 K, 31800 kPa, Fluid (supercritical or subcritical phases)	0.1039 ± 0.0038 W/m/K
301.6 K, 40300 kPa, Fluid (supercritical or subcritical phases)	0.1138 ± 0.0041 W/m/K
301.6 K, 45200 kPa, Fluid (supercritical or subcritical phases)	0.1185 ± 0.0043 W/m/K
301.6 K, 50400 kPa, Fluid (supercritical or subcritical phases)	0.1236 ± 0.0044 W/m/K
301.6 K, 55500 kPa, Fluid (supercritical or subcritical phases)	0.1283 ± 0.0046 W/m/K
301.6 K, 59300 kPa, Fluid (supercritical or subcritical phases)	0.132 ± 0.0047 W/m/K
301.6 K, 61000 kPa, Fluid (supercritical or subcritical phases)	0.1337 ± 0.0048 W/m/K and 0.1336 ± 0.0048 W/m/K
301.6 K, 62000 kPa, Fluid (supercritical or subcritical phases)	0.1342 ± 0.0048 W/m/K
301.6 K, 65000 kPa, Fluid (supercritical or subcritical phases)	0.1366 ± 0.0049 W/m/K
301.6 K, 65300 kPa, Fluid (supercritical or subcritical phases)	0.1372 ± 0.0049 W/m/K
301.6 K, 65700 kPa, Fluid (supercritical or subcritical phases)	0.1378 ± 0.0049 W/m/K
301.6 K, 66000 kPa, Fluid (supercritical or subcritical phases)	0.1378 ± 0.0049 W/m/K
301.6 K, 70000 kPa, Fluid (supercritical or subcritical phases)	0.1414 ± 0.005 W/m/K
302.21 K, 101 kPa, Gas	0.02112 ± 0.00077 W/m/K
303.1 K, 101 kPa, Gas	0.0207 ± 0.00076 W/m/K
425 K, 101 kPa, Gas	0.0381 ± 0.0013 W/m/K
425.46 K, 500 kPa, Fluid (supercritical or subcritical phases)	0.03821 ± 0.0017 W/m/K
425.46 K, 1000 kPa, Fluid (supercritical or subcritical phases)	0.03832 ± 0.0017 W/m/K
425.46 K, 2500 kPa, Fluid (supercritical or subcritical phases)	0.03937 ± 0.0017 W/m/K
425.46 K, 5000 kPa, Fluid (supercritical or subcritical phases)	0.04226 ± 0.0018 W/m/K
425.46 K, 7300 kPa, Fluid (supercritical or subcritical phases)	0.04435 ± 0.0019 W/m/K
425.46 K, 10000 kPa, Fluid (supercritical or subcritical phases)	0.04845 ± 0.002 W/m/K
425.46 K, 12200 kPa, Fluid (supercritical or subcritical phases)	0.0528 ± 0.0022 W/m/K
425.46 K, 14600 kPa, Fluid (supercritical or subcritical phases)	0.05769 ± 0.0023 W/m/K and 0.05771 ± 0.0023 W/m/K
425.46 K, 14800 kPa, Fluid (supercritical or subcritical phases)	0.05814 ± 0.0023 W/m/K
425.46 K, 20000 kPa, Fluid (supercritical or subcritical phases)	0.06783 ± 0.0026 W/m/K
425.46 K, 24900 kPa, Fluid (supercritical or subcritical phases)	0.07364 ± 0.0028 W/m/K
425.46 K, 30000 kPa, Fluid (supercritical or subcritical phases)	0.07726 ± 0.0029 W/m/K
425.46 K, 40600 kPa, Fluid (supercritical or subcritical phases)	0.08392 ± 0.0032 W/m/K
425.46 K, 50500 kPa, Fluid (supercritical or subcritical phases)	0.0908 ± 0.0034 W/m/K
425.46 K, 60700 kPa, Fluid (supercritical or subcritical phases)	0.09875 ± 0.0036 W/m/K
425.46 K, 70300 kPa, Fluid (supercritical or subcritical phases)	0.1051 ± 0.0038 W/m/K
425.46 K, 71800 kPa, Fluid (supercritical or subcritical phases)	0.1068 ± 0.0039 W/m/K
425.46 K, 73700 kPa, Fluid (supercritical or subcritical phases)	0.109 ± 0.004 W/m/K
425.46 K, 75000 kPa, Fluid (supercritical or subcritical phases)	0.1098 ± 0.004 W/m/K
425.46 K, 79000 kPa, Fluid (supercritical or subcritical phases)	0.1119 ± 0.0041 W/m/K
425.46 K, 81900 kPa, Fluid (supercritical or subcritical phases)	0.1144 ± 0.0042 W/m/K
425.46 K, 89500 kPa, Fluid (supercritical or subcritical phases)	0.1184 ± 0.0043 W/m/K
425.46 K, 93500 kPa, Fluid (supercritical or subcritical phases)	0.1214 ± 0.0044 W/m/K
425.46 K, 97000 kPa, Fluid (supercritical or subcritical phases)	0.1232 ± 0.0044 W/m/K
425.46 K, 100000 kPa, Fluid (supercritical or subcritical phases)	0.1251 ± 0.0045 W/m/K
425.62 K, 101 kPa, Gas	0.03809 ± 0.0013 W/m/K
